According to patent publication US20070136834A1, “Method and system for real-time analysis of biosensor data” (priority 2005, published 2007):

Test system: naturally-occurring algae
Test: Variable chlorophyll fluorescence induction of naturally-occurring algae in Clinch River water, differential displacement (least-squares) analysis against control curve
Format: cell-based
Excerpt: Primary-source drinking water is monitored at regular intervals, for example every three to five minutes. • 2. Each (analog) chlorophyll fluorescence induction curve that is acquired for each interval is digitized and stored. The shape of each curve is a recording of the physiological status of the algae at that point in time. • 3. For each subsequent recording, such as three to five minutes later, the variable chlorophyll fluorescence induction curve at that time can be compared with the curve that was recorded three to five minutes earlier. • 4. By using a nonlinear least-squares fit of the current data with the previous curve, a quantitative assessment can be made that determines the degree of departure of the current curve as compared to its predecessor. • 5. Based on an algorithm, such as algorithms described herein, an objective real-time assessment of the degree of departure is obtained between the variable fluorescence curves and the correlation of that departure with the possible presence of toxins in the water.
Data analysis typically comprises three steps. […] Third, the set of numbers that comprises the transformation coefficient is analyzed for specific patterns analyzed by custom software to detect “fingerprints” for specific toxins such as chemical toxins. […]

## COP(=S)(OC)Oc1ccc([N+](=O)[O-])cc1 [methyl parathion]
  effect on shape of variable fluorescence induction curve: change the shape of the variable fluorescence induction curve
